Data on 23 molecules can be found in ChEMBL document CHEMBL3046361, “Coumarin: a potential nucleus for anti-inflammatory molecules” (Med Chem Res, 2013).

Bounds are passed on as bounds.

Test [1] concerns PBMC. Description: Anti-inflammatory activity in Homo sapiens (human) PBMC assessed as inhibition of LPS-induced TNFalpha production. It counts as functional, cell-based.
The subject of test [2] is Rattus norvegicus. In words: Anti-inflammatory activity in albino Rattus norvegicus (rat) assessed as inhibition of carrageenan-induced paw edema at 10 mg/kg, po administered 1 hr prior to carrageenan-challenge measured after 3 hr relative to control. It counts as functional.
In test [3] the test system is Rattus norvegicus. Description: Anti-inflammatory activity in albino Rattus norvegicus (rat) assessed as inhibition of carrageenan-induced paw edema at 10 mg/kg, po administered 30 min prior to carrageenan-challenge measured after 5 hr relative to control. It counts as functional. In general terms: Carrageenan injected into the paw causes an acute inflammation.
Test [4] has as its system Rattus norvegicus. Description: Anti-inflammatory activity in Rattus norvegicus (rat) assessed as inhibition of carrageenan-induced paw edema at […] relative to control. It is filed as functional.
Test [5] has as its system Rattus norvegicus. In words: Anti-inflammatory activity in Rattus norvegicus (rat) assessed as inhibition of carrageenan-induced paw edema at 0.1 mmoles/kg relative to control. It counts as functional. Conditions: read-out: INH.
Test [6] concerns the target T1, Seed linoleate 13S-lipoxygenase-1 (Glycine max) (UniProt P08170).
T1 sequence (whole entry): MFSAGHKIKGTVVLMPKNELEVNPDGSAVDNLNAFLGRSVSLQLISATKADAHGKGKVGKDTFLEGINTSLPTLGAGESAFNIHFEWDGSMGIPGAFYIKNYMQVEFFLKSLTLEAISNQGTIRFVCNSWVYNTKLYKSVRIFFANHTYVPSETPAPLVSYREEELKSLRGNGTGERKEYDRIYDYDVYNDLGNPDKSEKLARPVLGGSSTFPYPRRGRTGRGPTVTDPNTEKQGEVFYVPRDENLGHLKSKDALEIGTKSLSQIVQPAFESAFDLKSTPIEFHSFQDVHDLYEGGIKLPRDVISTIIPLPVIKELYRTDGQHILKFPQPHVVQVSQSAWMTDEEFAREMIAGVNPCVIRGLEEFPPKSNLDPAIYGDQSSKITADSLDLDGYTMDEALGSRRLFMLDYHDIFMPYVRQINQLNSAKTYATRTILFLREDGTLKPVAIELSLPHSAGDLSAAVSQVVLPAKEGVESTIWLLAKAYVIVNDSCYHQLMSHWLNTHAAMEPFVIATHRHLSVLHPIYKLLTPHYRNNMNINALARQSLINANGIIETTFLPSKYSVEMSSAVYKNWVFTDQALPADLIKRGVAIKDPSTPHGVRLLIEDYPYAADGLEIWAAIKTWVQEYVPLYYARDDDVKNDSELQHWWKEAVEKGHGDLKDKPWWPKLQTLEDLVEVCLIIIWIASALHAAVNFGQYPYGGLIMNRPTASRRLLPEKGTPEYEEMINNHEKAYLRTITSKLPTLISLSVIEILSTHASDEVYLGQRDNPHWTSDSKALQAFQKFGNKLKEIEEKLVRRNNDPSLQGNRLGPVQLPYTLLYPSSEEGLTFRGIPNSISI
In words: Inhibition of Glycine max (soybean) lipooxygenase.

For test [7], the system named is Rattus norvegicus. In words: Anti-inflammatory activity in albino Rattus norvegicus (rat) assessed as inhibition of carrageenan-induced paw edema at 100 mg/kg, po administered 30 min prior to carrageenan-challenge measured after 5 hr relative to control. It counts as functional.
In test [8] the test system is Rattus norvegicus. Description: Anti-inflammatory activity in Rattus norvegicus (rat) assessed as inhibition of carrageenan-induced paw edema relative to control. It counts as functional.
In test [9] the target is Prostaglandin G/H synthase 1 (Homo sapiens) (UniProt P23219). In words: Inhibition of COX1 (unknown origin). Conditions: concentration not given here.
The subject of test [10] is Rattus norvegicus. Description: Anti-inflammatory activity in Rattus norvegicus (rat) assessed as inhibition of carrageenan-induced paw edema at 100 mg/kg, po relative to control. It counts as functional.

By IC50 is commonly meant the concentration needed to halve the response being measured. By inhibition is commonly meant how much of the control response was suppressed.

Sequence of Prostaglandin G/H synthase 1 (Homo sapiens) (P23219 whole entry): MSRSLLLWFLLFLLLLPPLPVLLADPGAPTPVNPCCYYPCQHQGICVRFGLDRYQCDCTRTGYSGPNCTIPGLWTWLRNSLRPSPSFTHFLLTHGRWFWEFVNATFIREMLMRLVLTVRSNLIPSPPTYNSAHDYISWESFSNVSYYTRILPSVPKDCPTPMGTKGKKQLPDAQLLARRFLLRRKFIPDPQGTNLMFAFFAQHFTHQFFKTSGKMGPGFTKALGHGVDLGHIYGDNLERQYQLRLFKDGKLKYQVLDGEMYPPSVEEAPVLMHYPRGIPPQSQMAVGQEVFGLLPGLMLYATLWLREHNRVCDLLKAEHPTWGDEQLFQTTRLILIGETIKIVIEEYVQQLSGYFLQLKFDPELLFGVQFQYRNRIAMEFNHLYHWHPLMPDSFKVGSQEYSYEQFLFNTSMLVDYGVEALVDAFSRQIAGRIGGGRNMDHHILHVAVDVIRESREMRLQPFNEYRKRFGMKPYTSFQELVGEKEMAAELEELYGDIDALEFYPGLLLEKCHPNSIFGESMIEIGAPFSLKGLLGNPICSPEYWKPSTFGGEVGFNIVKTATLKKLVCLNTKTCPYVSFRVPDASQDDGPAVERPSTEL

As for `CN(C)C(=O)Oc1cc2oc(=O)c(-c3cccnc3)cc2cc1Cl`, in test [1], the IC50 was found to be 450 nM.
On to `COc1ccc2c(c1)c(CC(=O)O)c(C)n2C(=O)c1ccc(Cl)cc1` [INDOMETHACIN], for which the inhibition in vivo at 10 mg/kg in test [2] is 56.5%; in test [3] it was 71%.
Turning to `COc1ccc(-c2cc(-c3c(OC)ccc4c(C)cc(=O)oc34)no2)cc1`, the “inhibition (INH)” value in [4] came out at 72%.
Turning to `CCOC(=O)c1cc(=O)oc2c3c(c4ccccc4c12)OC(C)(C)[C@@H](O)[C@H]3O`, the inhibition in vivo at 100 µmol/kg in [5] was 59%. Also, the inhibition in [6] came to 100%.
On the same counts, the results for `CCOC(=O)c1cc(=O)oc2c3c(c4ccccc4c12)OC(C)(C)[C@@H](O)[C@H]3OC(=O)c1cccc(Cl)c1` are 59% and 100%.
For `CC(=O)N1N=C(c2cc3cc(Br)ccc3oc2=O)CC1c1ccc([N+](=O)[O-])cc1` (stereo unspecified), the inhibition in vivo at 100 mg/kg in [7] turned out to be 66.5%.
Consider `N/C(=N/C(=O)Oc1ccccc1)c1cc(=O)oc2ccccc12`, for which the “inhibition (INH)” value in test [8] is recorded as over 80%.
In turn, `CC1=NC(c2cc(=O)oc3ccccc23)NO1` (stereo unspecified) gave an inhibition in [6] of 77%.
In turn, `O=c1ccc2ccc(/C=N/O)cc2o1` displayed an inhibition in [9] of 78.6%.
In test [6], `Cc1cc(=O)oc2cc(NCCN(CCN)CCN)ccc12` displayed an inhibition of 92.4%.
In the case of `O=c1oc2ccccc2cc1/N=C/c1ccc(Cl)c(Cl)c1`, the inhibition in vivo at 100 mg/kg in [10] was 60%.
In the case of `CN(C)N/C(=N/O)c1cc(=O)oc2ccccc12`, in test [8], the “inhibition (INH)” value is given as over 80%.
Same read-out and setting: with `CCCC(=O)N/N=C/c1coc2ccccc2c1=O` the figure was 80.78%.
Take `O=c1oc2ccccc2cc1/N=C/c1ccc(Cl)cc1`: the inhibition in vivo at 100 mg/kg in [10] came out at 75%.
`COC(=O)/N=C(/N)c1cc(=O)oc2ccccc12` yielded an inhibition in [6] of 76%.
As to `CCN(CC)C(=O)Oc1ccc2c(C)c(Cc3ccc(F)cc3)c(=O)oc2c1`, in test [1], the IC50 was determined as 2400 nM.
Regarding `COc1ccc2c(C)cc(=O)oc2c1-c1cc(-c2ccc(Cl)cc2)on1`, in test [4], the “inhibition (INH)” value is given as 68%.
Turning to `Cc1c/c(=N\c2ccc([N+](=O)[O-])cc2)oc2cc(O)ccc12`, in test [9], the inhibition was found to be 39%.
`CCNC(=O)Nc1ccc(-c2cc3ccc(OC(=O)N(CC)CC)cc3oc2=O)cc1`: the 50% inhibitory concentration (IC50) in test [1] stood at 320 nM.
On to `COc1ccc2c(C3=NOSN3c3ccccc3)cc(=O)oc2c1`, for which, in test [2], the inhibition in vivo at 10 mg/kg was 55.3%.
With `O=C(O)c1ccccc1NC(=O)c1cc2cc(Cl)ccc2oc1=O`, the “inhibition (INH)” value in test [8] amounted to 54%.
The same measure, in the same setting: with `CO/N=C/c1ccc2ccc(=O)oc2c1` the figure was 54%.
Still for that read-out and setting: with `CN/N=C/c1ccc2ccc(=O)oc2c1` the figure was 54%.
